Experiments:
[1] = test system: normal NK cells expanded with K562-aAPC; assay: percent inhibition of viability; higher = more inhibition; conditions: 72 h, IL-2 2.5 ng/mL
Method: (§1)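 Drug sensitivity and resistance testing on K562-aAPC-expanded normal NK cells: 5 concentrations (10-fold steps over a 10,000-fold range), 72 h at 37 °C, viability by CellTiter-Glo normalised to DMSO and benzethonium chloride controls; DSS from the fitted curve.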

[2] = test system: DERL-7 (IL-2 2.5 ng/mL); assay: as above; conditions: 72 h
[3] = test system: IMC-1 (IL-2 20 ng/mL); assay: as above; conditions: 72 h
[4] = test system: KAI3 (IL-2 2.5 ng/mL); assay: as above; conditions: 72 h
[5] = test system: KHYG-1 (IL-2 2.5 ng/mL); assay: as above; conditions: 72 h
[6] = test system: NK-92 (IL-2 2.5 ng/mL); assay: as above; conditions: 72 h
[7] = test system: NK-YS (IL-2 2.5 ng/mL); assay: as above; conditions: 72 h
[8] = test system: NKL (IL-2 2.5 ng/mL); assay: as above; conditions: 72 h
[9] = test system: SNK-6 (IL-2 2.5 ng/mL); assay: as above; conditions: 72 h
[10] = test system: YT (IL-2 2.5 ng/mL); assay: as above; conditions: 72 h
[11] = test system: normal primary NK cells, pool 1 (3 donors) (IL-2 2.5 ng/mL); assay: as above; conditions: 72 h
[12] = test system: normal primary NK cells, pool 1 (3 donors), resting (IL-2 0 ng/mL); assay: as above; conditions: 72 h
[13] = test system: normal primary NK cells, pool 2 (3 donors) (IL-2 2.5 ng/mL); assay: as above; conditions: 72 h
[14] = test system: normal primary NK cells, pool 3 (3 donors) (IL-2 2.5 ng/mL); assay: as above; conditions: 72 h
[15] = test system: normal NK cells expanded with K562-aAPC; assay: drug sensitivity score (DSS) (DSS units); higher = more sensitive; extreme values may be limits of the assay; conditions: 72 h; IL-2 2.5 ng/mL
Method: as §1

[16] = test system: DERL-7 (IL-2 2.5 ng/mL); assay: as above; conditions: 72 h
[17] = test system: IMC-1 (IL-2 20 ng/mL); assay: as above; conditions: 72 h
[18] = test system: KAI3 (IL-2 2.5 ng/mL); assay: as above; conditions: 72 h
[19] = test system: KHYG-1 (IL-2 2.5 ng/mL); assay: as above; conditions: 72 h
[20] = test system: NK-92 (IL-2 2.5 ng/mL); assay: as above; conditions: 72 h
[21] = test system: NK-YS (IL-2 2.5 ng/mL); assay: as above; conditions: 72 h
[22] = test system: NKL (IL-2 2.5 ng/mL); assay: as above; conditions: 72 h
[23] = test system: SNK-6 (IL-2 2.5 ng/mL); assay: as above; conditions: 72 h
[24] = test system: YT (IL-2 2.5 ng/mL); assay: as above; conditions: 72 h
[25] = test system: normal primary NK cells, pool 1 (3 donors) (IL-2 2.5 ng/mL); assay: as above; conditions: 72 h
[26] = test system: normal primary NK cells, pool 1 (3 donors), resting (IL-2 0 ng/mL); assay: as above; conditions: 72 h
[27] = test system: normal primary NK cells, pool 2 (3 donors) (IL-2 2.5 ng/mL); assay: as above; conditions: 72 h
[28] = test system: normal primary NK cells, pool 3 (3 donors) (IL-2 2.5 ng/mL); assay: as above; conditions: 72 h

Cn1cc(-c2cnn3c(N)c(Br)c([C@@H]4CCCNC4)nc23)cn1 [MK-8776] (max concentration tested 2500 nM)
percent inhibition of viability [%]
Conditions	0.25 nM	2.5 nM	25 nM	250 nM	2500 nM
[1]	-4.61	0.4	-2.28	10.6	52.3
[2]	-4.26	-3.5	3.67	6.88	55.8
[3]	0.83	-1.94	-0.11	-7.96	-12.2
[4]	3.31	2.43	4.64	27.4	78.2
[5]	-1.01	-4.38	-0.53	35.5	96.9
[6]	-2.81	3.64	-4.5	1.39	59.4
[7]	-4.27	-8.69	-3.31	4.44	71.2
[8]	-4.57	-4.36	-8.73	22.1	81.6
[9]	9.37	1.96	-6.2	5.96	39.8
[10]	0.02	-2.99	0.3	1.22	7.84
[11]	-5.76	-3.11	7.06	4.82	30.9
[12]	-9.91	-16.5	4.6	0.8	20
[13]	-8.05	-5.57	-3.65	-0.92	21.5
[14]	-9.21	-3.85	-3.76	-1.26	7.54

Conditions	drug sensitivity score
[15]	4.51
[16]	4.16
[17]	0
[18]	7.81
[19]	10.2
[20]	3.39
[21]	4.58
[22]	7.86
[23]	2.97
[24]	0
[25]	2.16
[26]	0.68
[27]	0.64
[28]	0

O=c1[nH]cc(F)c(=O)[nH]1 [Fluorouracil] (max concentration tested 10000 nM)
percent inhibition of viability [%]
Conditions	1 nM	10 nM	100 nM	1000 nM	10000 nM
[1]	-6.1	-8.86	-5.42	2.62	38.1
[2]	-1.71	-2.2	-3.46	5.05	60.8
[3]	-7.45	1.88	-3.48	4.56	12.9
[4]	-0.14	3.84	8.25	42.8	49.3
[5]	-4.58	-7.58	-3.77	12.7	86.4
[6]	-11.2	1.29	5.09	42.9	60
[7]	-1.75	0.12	4.17	40.3	84
[8]	-15.3	-7.36	-0.39	28.1	74.8
[9]	-7.99	-14.1	-22.8	34.2	86.7
[10]	-7.37	-4.14	-1.13	39.8	64
[11]	-1.01	15.2	8.55	0.37	11.4
[12]	2.96	13.7	16.1	21.9	19
[13]	1.43	2.09	10.1	5	7.54
[14]	-3.48	2.62	7.34	0.65	7.07

Conditions	drug sensitivity score
[15]	2.24
[16]	4.1
[17]	0.36
[18]	8.77
[19]	6.91
[20]	8.76
[21]	9.4
[22]	8.01
[23]	9.4
[24]	8.28
[25]	0
[26]	5.42
[27]	0
[28]	0

COc1cc2nccc(Oc3ccc(NC(=O)Nc4cc(C)on4)c(Cl)c3)c2cc1OC [Tivozanib] (max concentration tested 10000 nM)
percent inhibition of viability [%]
Conditions	1 nM	10 nM	100 nM	1000 nM	10000 nM
[1]	-1.14	-3.52	-0.12	3.67	-4.22
[2]	6.25	-4.07	8.65	3.71	74.2
[3]	0.39	1.69	-1.08	4.81	20.3
[4]	0.42	12.7	7.97	8.25	33.2
[5]	2.06	3.29	1.48	11.4	50.2
[6]	17.7	7.65	22.3	42.5	71
[7]	-1.25	1.72	3.3	12.8	64.8
[8]	-0.1	-11	-5.13	8.13	47.4
[9]	0.59	1.54	-8.58	41.8	65.3
[10]	8.31	9.93	8.18	19.9	61.6
[11]	-3.27	-5.56	-13	7.21	36.9
[12]	5.37	-0.35	5.84	18.5	67.5
[13]	5.79	7.02	3.11	-2.45	29.2
[14]	8.53	3.31	5.07	0.75	3.16

Conditions	drug sensitivity score
[15]	0
[16]	4.63
[17]	1.23
[18]	2.57
[19]	4.48
[20]	11.5
[21]	5.65
[22]	3.83
[23]	8.55
[24]	5.67
[25]	2.94
[26]	6.37
[27]	1.08
[28]	0

Cn1cc(-c2ccc3nnc(C(F)(F)c4ccc5ncccc5c4)n3n2)cn1 (max concentration tested 10000 nM)
percent inhibition of viability [%]
Conditions	1 nM	10 nM	100 nM	1000 nM	10000 nM
[1]	2.09	-3.72	2.32	3.57	16.4
[2]	-6.47	1.35	-5.46	-8.39	-0.31
[3]	2.83	3.66	7.99	14.2	18.1
[4]	3.43	0.25	2.09	1.51	5.42
[5]	0.7	1.87	-1.15	9.39	7.11
[6]	3.19	2.36	1.58	20	16.7
[7]	-0.7	-2.18	-0.71	3.19	6.06
[8]	15.6	0.97	2.69	5.68	32.8
[9]	-5.06	-3.02	-0.1	27.9	44
[10]	2.08	2.01	-0.66	8.07	15.4
[11]	-10.8	-1.09	-9.66	-1.21	4
[12]	-30.2	-15.2	-20.6	-28.2	-14.9
[13]	-8.18	-11	-4.17	-3.65	7.05
[14]	-11.6	-17.9	-6.24	0.44	0.55

Conditions	drug sensitivity score
[15]	0.71
[16]	0
[17]	1.63
[18]	0
[19]	0
[20]	2.9
[21]	0
[22]	2.43
[23]	5.6
[24]	0.87
[25]	0
[26]	0
[27]	0
[28]	0

COc1cc(OC2CCN(C)CC2)ccc1Nc1ncc2c(n1)n(C1CCCC1)c(=O)n2C [AZ 3146] (max concentration tested 10000 nM)
percent inhibition of viability [%]
Conditions	1 nM	10 nM	100 nM	1000 nM	10000 nM
[1]	-2.2	0.53	-2.22	4.68	95.5
[2]	-4.12	4.05	2.89	9.9	98.6
[3]	-1.3	2.72	8.86	9.14	100
[4]	-6.95	-0.01	1.16	23.6	97.9
[5]	3.47	1.13	9.55	13.1	104
[6]	0.39	-0.68	10.8	-7.78	55.7
[7]	1	1.98	6.37	19	93.4
[8]	-14.9	-7.34	-5.85	12.7	92.9
[9]	16.5	16.6	28.5	15.2	90
[10]	2.24	1.06	7.18	13.3	92.1
[11]	-2.73	-14.2	-10.5	0.05	89.1
[12]	8.87	-6.36	1.82	9.09	81.8
[13]	-14.1	-0.67	12.1	6.73	74.2
[14]	-14.2	1.88	2.52	5.03	80

Conditions	drug sensitivity score
[15]	5.96
[16]	7.08
[17]	7.02
[18]	9.06
[19]	7.83
[20]	2.49
[21]	8.24
[22]	7.26
[23]	7.53
[24]	7.34
[25]	4.98
[26]	6.04
[27]	5.18
[28]	5.18

Reference: the supplement of paper PMC5908809
